From PMC10117764, “The roles of serine hydrolases and serum albumin in alisol B 23-acetate hydrolysis in humans” (Frontiers in Pharmacology, 2023)
“And” between values parts separate entries of the source, which are not always exact repeats. Equal entries are not always repeated.

How the values were obtained:
[1] = Hydrolytic half-life of AB23A in human intestine microsomes; type: in vitro ADME; settings: human intestine microsomes (HIMs), HIMs 0.1 mg/mL, PBS pH 7.4, read-out: t1/2 (hydrolytic/metabolic half-life)
Method: (§1) The hydrolytic half-lives (t1/2) of AB23A in human plasma and different human tissue preparations were carried out according to the procedure of in vitro metabolic stability studies ([Ge et al., 2013]). The incubation mixture (1,000 μL) consisted of PBS (pH 7.4), enzyme sources (HLMs/HIMs/human plasma) and AB23A. 25% diluted human plasma was used, the protein concentrations of other tissue microsomes were 0.1 mg/mL. The 100 μL incubation mixture was moved to another containing ice-cold acetonitrile tube at different time points (0, 5, 15, 30, 45, 60, 90, 120 min). All samples were centrifuged for 30 min at 20,000 g 4°C and took the supernatants for LC-UV analysis.
(§2) The incubation conditions were as follows: the classic incubation system included 100 mM potassium phosphate buffer (PBS, pH 7.4), enzyme sources, and AB23A. In all incubations, PBS and enzyme sources were pre-incubation at 37 °C for 3 min and the reaction was started by adding AB23A (the organic solvent content at most 1%). After reacting 1 h, ice-cold acetonitrile was added to terminate the reaction and precipitate proteins. The samples were centrifuged for 30 min at 20000 × g, 4 °C, and the supernatants were taken for further LC-UV analysis.

[2] = Hydrolytic half-life of AB23A in human plasma; type: in vitro ADME; settings: human plasma (25% diluted); 25% dilution human plasma, PBS pH 7.4; read-out: t1/2 (hydrolytic/metabolic half-life)
Method: as §1, §2

hCES1A = molecular target: T1, hCES1A (Homo sapiens, UniProt P23141); experiment: Kinetic analysis of AB23A hydrolysis in hCES1A; type: in vitro ADME; settings: 1 h incubation
T1 construct: 10xHis; made in house; host or cells: HEK293-F cells, pTT5 vector, purified from conditioned medium
T1 sequence (P23141 18-563): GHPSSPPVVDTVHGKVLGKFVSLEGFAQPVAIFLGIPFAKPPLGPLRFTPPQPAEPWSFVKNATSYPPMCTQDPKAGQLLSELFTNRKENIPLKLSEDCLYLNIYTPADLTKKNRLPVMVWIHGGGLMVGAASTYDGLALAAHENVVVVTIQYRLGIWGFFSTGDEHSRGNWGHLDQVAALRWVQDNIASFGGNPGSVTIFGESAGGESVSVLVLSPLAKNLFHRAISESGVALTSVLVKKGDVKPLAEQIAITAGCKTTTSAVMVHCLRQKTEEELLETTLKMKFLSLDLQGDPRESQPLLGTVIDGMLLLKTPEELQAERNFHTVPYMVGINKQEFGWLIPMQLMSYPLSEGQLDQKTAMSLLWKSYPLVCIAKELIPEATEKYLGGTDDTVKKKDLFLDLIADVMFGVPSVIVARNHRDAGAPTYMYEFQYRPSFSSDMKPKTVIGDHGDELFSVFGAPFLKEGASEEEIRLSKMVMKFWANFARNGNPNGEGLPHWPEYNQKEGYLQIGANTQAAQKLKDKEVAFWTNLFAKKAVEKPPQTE
Method: (§3) The enzymatic kinetics of AB23A hydrolysis in different tissue preparations (HLMs, HIMs, human plasma) and human recombinant enzymes (hCES1A, hCES2A, hSA, hBchE) were analyzed. The incubation system (200 μL) consisted of PBS, each tested enzyme, and AB23A (ranging from 0 to 1,000 μM). After incubating for 1 h, the supernatants were then used for LC-UV analysis. The kinetic parameters of AB23A hydrolysis were fitted by the following Michaelis−Menten Eq. 1 ([Zhang et al., 2022]). V=(Vmax×[S])⁄(Km+[S]) (1) Here, K m is the Michaelis constant of AB23A hydrolysis, V max is the maximum velocity of AB23A hydrolysis, V max /K m is used to calculate the intrinsic clearance (CL int ).

hCES2A = molecular target: T2, hCES2A (Homo sapiens, UniProt O00748); experiment: Kinetic analysis of AB23A hydrolysis in hCES2A; type: in vitro ADME; settings: 1 h incubation
T2 construct: 10xHis; made in house; host or cells: HEK293-F cells, pTT5 vector, purified from conditioned medium
T2 sequence (O00748 27-559): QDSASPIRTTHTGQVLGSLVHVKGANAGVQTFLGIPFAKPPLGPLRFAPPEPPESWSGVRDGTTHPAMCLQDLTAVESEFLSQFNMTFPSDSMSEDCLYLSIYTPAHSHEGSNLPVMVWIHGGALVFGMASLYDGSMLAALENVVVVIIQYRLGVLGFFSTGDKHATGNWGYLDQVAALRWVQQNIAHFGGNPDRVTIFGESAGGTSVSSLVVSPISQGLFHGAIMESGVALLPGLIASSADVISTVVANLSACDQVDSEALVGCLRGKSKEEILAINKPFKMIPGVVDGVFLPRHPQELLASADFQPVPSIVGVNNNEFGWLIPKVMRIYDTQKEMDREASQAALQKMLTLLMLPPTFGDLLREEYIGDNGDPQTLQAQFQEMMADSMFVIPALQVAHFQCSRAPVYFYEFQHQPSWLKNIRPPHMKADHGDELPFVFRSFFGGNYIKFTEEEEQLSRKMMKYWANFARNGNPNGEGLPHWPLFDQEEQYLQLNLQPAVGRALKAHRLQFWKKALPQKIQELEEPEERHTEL
Method: as §3

hBchE [3] = molecular target: T3, hBchE (Homo sapiens, UniProt P06276); experiment: Kinetic analysis of AB23A hydrolysis in hBchE; type: in vitro ADME; settings: 1 h incubation
T3 construct: purchased Sigma-Aldrich Lot SLCG5158
T3 sequence (P06276 29-602): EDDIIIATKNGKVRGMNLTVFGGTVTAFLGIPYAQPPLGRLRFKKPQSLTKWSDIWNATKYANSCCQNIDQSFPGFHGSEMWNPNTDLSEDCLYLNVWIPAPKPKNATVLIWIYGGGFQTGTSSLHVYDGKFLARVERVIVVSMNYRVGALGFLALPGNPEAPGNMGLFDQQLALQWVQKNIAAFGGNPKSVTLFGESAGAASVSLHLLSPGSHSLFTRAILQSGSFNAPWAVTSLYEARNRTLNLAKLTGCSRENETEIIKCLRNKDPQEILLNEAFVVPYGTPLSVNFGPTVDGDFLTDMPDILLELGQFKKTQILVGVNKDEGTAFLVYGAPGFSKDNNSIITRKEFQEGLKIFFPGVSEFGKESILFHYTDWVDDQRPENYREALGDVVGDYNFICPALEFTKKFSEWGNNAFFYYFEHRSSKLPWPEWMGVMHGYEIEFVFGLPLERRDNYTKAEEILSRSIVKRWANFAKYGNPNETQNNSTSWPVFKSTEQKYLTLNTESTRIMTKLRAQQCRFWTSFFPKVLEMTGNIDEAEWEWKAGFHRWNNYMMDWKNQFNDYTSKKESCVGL
Method: as §3

hSA = molecular target: T4, hSA (Homo sapiens, UniProt P02768); experiment: Kinetic analysis of AB23A hydrolysis in hSA; type: in vitro ADME; settings: 1 h incubation
T4 construct: purchased Sigma-Aldrich Lot#SLCC9268
T4 sequence (P02768 25-609): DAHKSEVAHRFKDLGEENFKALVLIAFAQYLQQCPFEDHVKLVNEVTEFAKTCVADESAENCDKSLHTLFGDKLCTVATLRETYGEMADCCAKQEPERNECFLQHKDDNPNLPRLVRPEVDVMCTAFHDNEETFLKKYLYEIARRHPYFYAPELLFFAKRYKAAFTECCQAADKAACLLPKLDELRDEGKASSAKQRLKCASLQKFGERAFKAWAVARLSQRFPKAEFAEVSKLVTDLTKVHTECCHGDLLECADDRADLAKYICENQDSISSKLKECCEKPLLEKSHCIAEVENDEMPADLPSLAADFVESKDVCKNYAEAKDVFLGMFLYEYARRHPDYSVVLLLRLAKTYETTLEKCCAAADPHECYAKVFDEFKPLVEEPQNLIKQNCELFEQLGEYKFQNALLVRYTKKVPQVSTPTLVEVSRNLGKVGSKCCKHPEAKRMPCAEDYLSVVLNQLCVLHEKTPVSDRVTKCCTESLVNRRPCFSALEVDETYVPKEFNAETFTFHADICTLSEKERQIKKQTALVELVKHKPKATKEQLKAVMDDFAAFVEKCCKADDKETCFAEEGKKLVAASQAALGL
Method: as §3

[4] = Kinetic analysis of AB23A hydrolysis in HLMs; type: in vitro ADME, human
Method: as §3

[5] = Kinetic analysis of AB23A hydrolysis in HIMs; type: in vitro ADME, human
Method: as §3

[6] = Kinetic analysis of AB23A hydrolysis in human plasma; type: in vitro ADME; settings: 25% dilution
Method: as §3

hBchE [7] = molecular target: T3, hBchE; experiment: Reaction phenotyping assay of AB23A hydrolysis, hBchE; type: in vitro ADME; settings: hBchE 5 μg/mL, AB23A 20 μM, 60 min, pH 7.4 at 37°C
Method: The hydrolytic rates of AB23A in different human recombinant enzymes (hCES1A, hCES2A, hPL, hIAH1, hNotum, hAchE, hBchE, hSA, hCTSA, hMAGL) were assayed. The incubation system included PBS, each tested enzyme (5 μg/mL, final concentration), and AB23A (20 μM). After incubation for 1 h at 37°C, ice-cold acetonitrile was added to terminate the reaction and precipitate proteins. The supernatants by centrifuging were used to quantify the formation rates of AB by LC-UV analysis. The detection wavelength of AB was 196 nm.

## CC(=O)O[C@H](C[C@@H](C)C1=C2C[C@H](O)C3[C@@]4(C)CCC(=O)C(C)(C)C4CC[C@]3(C)[C@@]2(C)CC1)[C@H]1OC1(C)C (stereo partly shown) [AB23A, Alisol B 23-acetate]
[1]
  half-life: 1.1333 ± 0.000167 h
[2]
  half-life: 1.916 ± 0.00333 h
hCES1A
  K m of AB23A hydrolysis: 190.80 ± 31.41 µM
hCES2A
  K m of AB23A hydrolysis: 58.96 ± 2.41 µM
hBchE [3]
  K m of AB23A hydrolysis: 35.78 ± 3.40 µM
hSA
  K m of AB23A hydrolysis: 261.20 ± 18.69 µM
[4]
  K m of AB23A hydrolysis: 41.18 ± 3.46 µM
  V max of AB23A hydrolysis: 4.77 ± 0.08 nmol/min/mg protein and 4.77 ± 0.08 ^a nmol/min/mg protein
[5]
  K m of AB23A hydrolysis: 164.00 ± 18.63 µM
  V max of AB23A hydrolysis: 2.93 ± 0.10 nmol/min/mg protein and 2.93 ± 0.10 ^a nmol/min/mg protein
[6]
  K m of AB23A hydrolysis: 237.10 ± 15.00 µM
  V max of AB23A hydrolysis: 4.536 ± 0.09 nmol/min/mL and 4.536 ± 0.09 ^b nmol/min/mL
hBchE [7]
  Hydrolytic rate (formation of AB) in reaction phenotyping: faster hydrolytic rate
